Tests used:
Test in all cases: radiometric filter-binding kinase assay
[1] = biological target: STK11 CAB39 STRADA (human) (UniProt Q9Y376+Q7RTN6+Q15831)
TTK (human) = TTK (human) (UniProt P33981)
MINK1 (human) = MINK1 (human) (UniProt Q8N4C8)
AURKB (human) = AURKB (human) (UniProt Q96GD4)
MAPK1 (human) = MAPK1 (human) (UniProt P28482)
MELK (human) = MELK (human) (UniProt Q14680)
PRKACA (human) = PRKACA (human) (UniProt P17612)
MAPKAPK3 (human) = MAPKAPK3 (human) (UniProt Q16644)
ROCK2 (rat) = settings: accession and sequence are those of the human protein
MAP2K2 (human) = MAP2K2 (human) (UniProt P36507)
MKNK2 (human) = MKNK2 (human) (UniProt Q9HBH9)
INSRR (human) = INSRR (human) (UniProt P14616)
CHEK2 (human) = CHEK2 (human) (UniProt O96017)
NTRK1 (human) = NTRK1 (human) (UniProt P04629)
SRC (human) = SRC (human) (UniProt P12931)
GSK3B (human) = GSK3B (human) (UniProt P49841)
EEF2K (human) = EEF2K (human) (UniProt O00418)
MAPK13 (human) = MAPK13 (human) (UniProt O15264)
MYLK (human) = MYLK (human) (UniProt Q15746)
MARK4 (human) = MARK4 (human) (UniProt Q96L34)
MKNK1 (human) = MKNK1 (human) (UniProt Q9BUB5)
PRKCZ (human) = PRKCZ (human) (UniProt Q05513)
DAPK1 (human) = DAPK1 (human) (UniProt P53355)
LCK (mouse) = settings: accession and sequence are those of the human protein
RPS6KA1 KD1 KD2 (human) = RPS6KA1 KD1 KD2 (human) (UniProt Q15418)
CSK (human) = CSK (human) (UniProt P41240)
EPHB3 (human) = EPHB3 (human) (UniProt P54753)
PHKG1 (human) = PHKG1 (human) (UniProt Q16816)
MAP3K9 (human) = MAP3K9 (human) (UniProt P80192)
CSNK2A1 (human) = CSNK2A1 (human) (UniProt P68400)
IKBKB (human) = IKBKB (human) (UniProt O14920)
ERBB4 (human) = ERBB4 (human) (UniProt Q15303)
PRKAA1 or PRKAA2 (rat) = settings: accession and sequence are those of the human protein
CDK2 CCNA2 (human) = CDK2 CCNA2 (human) (UniProt P20248+P24941)
FGFR1 (human) = FGFR1 (human) (UniProt P11362)

Chain of TTK (human) (P33981 whole entry, looked up): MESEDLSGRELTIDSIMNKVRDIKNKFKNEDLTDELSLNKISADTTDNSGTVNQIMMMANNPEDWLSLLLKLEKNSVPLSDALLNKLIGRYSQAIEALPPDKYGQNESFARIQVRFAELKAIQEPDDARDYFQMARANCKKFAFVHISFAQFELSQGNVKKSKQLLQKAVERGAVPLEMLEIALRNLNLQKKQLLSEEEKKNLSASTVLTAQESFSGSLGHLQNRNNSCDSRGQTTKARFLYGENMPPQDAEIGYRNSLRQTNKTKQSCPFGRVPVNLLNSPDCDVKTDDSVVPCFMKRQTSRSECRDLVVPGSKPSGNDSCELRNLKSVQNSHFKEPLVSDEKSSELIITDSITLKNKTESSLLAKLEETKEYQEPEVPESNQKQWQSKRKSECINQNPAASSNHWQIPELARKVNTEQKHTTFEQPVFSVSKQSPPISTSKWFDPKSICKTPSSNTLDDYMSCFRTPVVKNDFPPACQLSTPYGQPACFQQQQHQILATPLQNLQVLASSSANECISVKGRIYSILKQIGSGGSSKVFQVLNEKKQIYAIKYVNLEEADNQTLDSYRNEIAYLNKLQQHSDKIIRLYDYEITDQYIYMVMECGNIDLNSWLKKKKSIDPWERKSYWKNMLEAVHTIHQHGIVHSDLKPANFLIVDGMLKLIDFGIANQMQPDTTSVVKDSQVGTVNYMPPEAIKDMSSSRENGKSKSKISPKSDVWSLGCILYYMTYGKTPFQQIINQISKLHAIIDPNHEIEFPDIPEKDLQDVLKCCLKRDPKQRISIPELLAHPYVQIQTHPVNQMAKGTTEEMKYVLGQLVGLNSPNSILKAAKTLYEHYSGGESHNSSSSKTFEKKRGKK
Chain of MYLK (human) (Q15746 whole entry, looked up): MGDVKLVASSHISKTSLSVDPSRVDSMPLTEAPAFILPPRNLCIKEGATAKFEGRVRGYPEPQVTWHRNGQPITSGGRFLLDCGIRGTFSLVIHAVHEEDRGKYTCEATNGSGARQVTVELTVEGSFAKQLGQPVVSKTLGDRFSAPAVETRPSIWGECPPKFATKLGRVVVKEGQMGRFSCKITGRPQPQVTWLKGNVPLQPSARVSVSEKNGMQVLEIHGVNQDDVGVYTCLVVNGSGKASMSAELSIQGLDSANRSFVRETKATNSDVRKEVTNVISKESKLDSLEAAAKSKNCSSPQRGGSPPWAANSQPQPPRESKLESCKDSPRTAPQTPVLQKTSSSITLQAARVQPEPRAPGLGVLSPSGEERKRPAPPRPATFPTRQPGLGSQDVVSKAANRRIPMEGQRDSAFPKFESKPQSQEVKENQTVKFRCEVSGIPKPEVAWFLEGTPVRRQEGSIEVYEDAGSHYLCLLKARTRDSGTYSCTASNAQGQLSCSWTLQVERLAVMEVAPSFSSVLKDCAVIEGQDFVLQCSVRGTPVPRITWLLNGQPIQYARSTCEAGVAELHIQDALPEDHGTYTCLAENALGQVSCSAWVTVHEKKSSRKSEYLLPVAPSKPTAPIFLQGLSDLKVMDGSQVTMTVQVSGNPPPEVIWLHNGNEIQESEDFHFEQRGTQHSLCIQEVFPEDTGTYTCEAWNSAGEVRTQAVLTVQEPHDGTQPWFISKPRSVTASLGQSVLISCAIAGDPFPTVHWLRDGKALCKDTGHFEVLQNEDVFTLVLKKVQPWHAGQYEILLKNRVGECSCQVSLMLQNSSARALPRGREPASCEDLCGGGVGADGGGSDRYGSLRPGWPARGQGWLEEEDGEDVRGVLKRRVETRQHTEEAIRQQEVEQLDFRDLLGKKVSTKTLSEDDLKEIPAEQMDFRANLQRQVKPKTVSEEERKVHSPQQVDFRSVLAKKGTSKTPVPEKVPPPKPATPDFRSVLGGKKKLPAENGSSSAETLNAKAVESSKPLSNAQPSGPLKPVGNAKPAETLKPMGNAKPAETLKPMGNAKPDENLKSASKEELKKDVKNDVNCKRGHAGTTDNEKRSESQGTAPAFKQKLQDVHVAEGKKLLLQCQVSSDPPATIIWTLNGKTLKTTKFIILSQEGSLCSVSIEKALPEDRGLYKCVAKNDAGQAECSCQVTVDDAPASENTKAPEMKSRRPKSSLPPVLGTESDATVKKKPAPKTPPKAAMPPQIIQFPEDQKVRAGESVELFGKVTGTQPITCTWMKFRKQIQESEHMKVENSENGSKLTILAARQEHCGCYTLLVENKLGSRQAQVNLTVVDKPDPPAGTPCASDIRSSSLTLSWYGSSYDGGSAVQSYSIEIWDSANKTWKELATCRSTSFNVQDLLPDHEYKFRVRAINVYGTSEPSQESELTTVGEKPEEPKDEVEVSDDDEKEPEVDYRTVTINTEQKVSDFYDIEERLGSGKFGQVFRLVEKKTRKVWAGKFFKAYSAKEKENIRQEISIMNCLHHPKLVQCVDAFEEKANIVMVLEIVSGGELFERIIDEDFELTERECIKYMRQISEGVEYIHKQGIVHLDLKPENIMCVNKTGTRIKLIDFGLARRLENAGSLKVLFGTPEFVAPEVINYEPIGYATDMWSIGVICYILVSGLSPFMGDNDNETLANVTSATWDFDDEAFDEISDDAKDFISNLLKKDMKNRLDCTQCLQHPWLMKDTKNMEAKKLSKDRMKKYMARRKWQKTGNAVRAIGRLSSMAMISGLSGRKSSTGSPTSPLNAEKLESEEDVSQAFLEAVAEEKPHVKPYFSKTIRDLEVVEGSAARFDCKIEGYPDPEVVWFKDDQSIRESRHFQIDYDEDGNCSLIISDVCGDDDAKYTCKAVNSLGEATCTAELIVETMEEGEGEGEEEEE
Chain of CHEK2 (human) (O96017 whole entry, looked up): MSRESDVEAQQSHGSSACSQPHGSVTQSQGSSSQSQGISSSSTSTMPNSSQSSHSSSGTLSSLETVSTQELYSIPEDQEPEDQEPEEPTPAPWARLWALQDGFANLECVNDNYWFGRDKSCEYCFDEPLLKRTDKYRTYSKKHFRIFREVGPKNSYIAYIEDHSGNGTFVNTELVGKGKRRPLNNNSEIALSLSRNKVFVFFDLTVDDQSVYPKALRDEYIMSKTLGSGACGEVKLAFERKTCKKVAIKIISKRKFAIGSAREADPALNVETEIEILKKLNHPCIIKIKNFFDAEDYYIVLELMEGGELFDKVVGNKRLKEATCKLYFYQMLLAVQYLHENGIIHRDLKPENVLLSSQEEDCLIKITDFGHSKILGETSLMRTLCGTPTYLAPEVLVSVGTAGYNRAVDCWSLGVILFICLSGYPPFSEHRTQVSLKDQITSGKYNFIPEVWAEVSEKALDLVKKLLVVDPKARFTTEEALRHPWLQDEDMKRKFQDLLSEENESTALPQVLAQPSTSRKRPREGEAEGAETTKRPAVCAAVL
Chain of MAPK1 (human) (P28482 whole entry, looked up): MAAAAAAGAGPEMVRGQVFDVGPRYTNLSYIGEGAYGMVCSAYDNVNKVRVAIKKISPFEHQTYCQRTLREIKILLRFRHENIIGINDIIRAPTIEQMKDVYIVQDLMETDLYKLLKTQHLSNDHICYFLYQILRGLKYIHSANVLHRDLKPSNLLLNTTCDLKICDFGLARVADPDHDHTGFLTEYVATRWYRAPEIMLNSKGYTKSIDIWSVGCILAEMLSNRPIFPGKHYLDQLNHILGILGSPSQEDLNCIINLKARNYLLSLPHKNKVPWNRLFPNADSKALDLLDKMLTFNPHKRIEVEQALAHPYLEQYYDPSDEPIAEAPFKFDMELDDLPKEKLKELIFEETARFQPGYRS
Chain of MINK1 (human) (Q8N4C8 whole entry, looked up): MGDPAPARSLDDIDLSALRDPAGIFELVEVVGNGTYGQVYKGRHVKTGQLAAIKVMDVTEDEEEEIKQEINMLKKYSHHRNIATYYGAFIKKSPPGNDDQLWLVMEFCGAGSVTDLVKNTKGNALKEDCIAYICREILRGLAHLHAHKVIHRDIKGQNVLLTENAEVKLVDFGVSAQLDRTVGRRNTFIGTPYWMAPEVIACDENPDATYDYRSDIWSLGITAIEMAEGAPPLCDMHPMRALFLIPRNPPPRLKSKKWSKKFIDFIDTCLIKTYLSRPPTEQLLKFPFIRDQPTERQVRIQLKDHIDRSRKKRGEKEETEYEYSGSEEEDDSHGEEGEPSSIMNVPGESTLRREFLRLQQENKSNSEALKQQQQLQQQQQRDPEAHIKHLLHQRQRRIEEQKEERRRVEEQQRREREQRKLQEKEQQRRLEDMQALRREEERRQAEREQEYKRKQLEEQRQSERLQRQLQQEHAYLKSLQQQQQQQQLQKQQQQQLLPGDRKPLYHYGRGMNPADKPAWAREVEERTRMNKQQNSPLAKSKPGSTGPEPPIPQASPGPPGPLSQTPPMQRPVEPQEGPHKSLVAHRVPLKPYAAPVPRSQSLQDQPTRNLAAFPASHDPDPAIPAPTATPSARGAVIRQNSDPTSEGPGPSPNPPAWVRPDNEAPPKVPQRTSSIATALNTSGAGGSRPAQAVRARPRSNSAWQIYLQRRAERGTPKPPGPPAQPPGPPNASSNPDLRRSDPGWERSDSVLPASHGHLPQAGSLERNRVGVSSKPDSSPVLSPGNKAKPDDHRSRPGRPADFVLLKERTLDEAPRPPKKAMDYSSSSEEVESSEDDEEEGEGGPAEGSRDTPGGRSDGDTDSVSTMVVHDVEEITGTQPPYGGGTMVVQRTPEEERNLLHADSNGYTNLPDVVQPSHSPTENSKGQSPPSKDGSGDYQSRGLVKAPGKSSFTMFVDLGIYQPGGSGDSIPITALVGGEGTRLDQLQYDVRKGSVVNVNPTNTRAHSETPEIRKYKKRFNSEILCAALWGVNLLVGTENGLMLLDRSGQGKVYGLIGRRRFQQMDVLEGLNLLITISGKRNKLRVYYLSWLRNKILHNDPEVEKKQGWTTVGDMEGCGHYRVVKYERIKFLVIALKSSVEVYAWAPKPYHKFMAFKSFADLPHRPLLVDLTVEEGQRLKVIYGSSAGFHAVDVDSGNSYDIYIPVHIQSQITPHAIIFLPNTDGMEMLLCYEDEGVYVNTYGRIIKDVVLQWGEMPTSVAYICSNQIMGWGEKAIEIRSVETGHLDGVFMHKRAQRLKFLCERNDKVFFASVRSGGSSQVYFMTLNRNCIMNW

A residual activity ([1]; compound 0.1 µM) of 118%, a residual activity ([1]; compound 1.0 µM) of 103% and a residual activity ([1]; compound 10.0 µM) of 97% were found for `Cc1ccc(-c2ccc3c(ccc4sc5c(c43)NC[C@@H](C)NC5=O)n2)cn1` in this work. It also gave a residual activity (TTK (human); compound 0.1 µM) of 117%, a residual activity (TTK (human); compound 1.0 µM) of 101% and a residual activity (TTK (human); compound 10.0 µM) of 84%. For the same molecule, the residual activity (MINK1 (human); compound 1.0 µM) was 97%, the residual activity (MINK1 (human); compound 10.0 µM) was 40% and the residual activity (AURKB (human); compound 0.1 µM) was 109%. For the same molecule, the residual activity (AURKB (human); compound 1.0 µM) was 99%, the residual activity (AURKB (human); compound 10.0 µM) was 64% and the residual activity (MAPK1 (human); compound 0.1 µM) was 102%. For the same molecule, the residual activity (MAPK1 (human); compound 10.0 µM) was 81%, the residual activity (MELK (human); compound 0.1 µM) was 123% and the residual activity (MELK (human); compound 10.0 µM) was 77%. It also gave a residual activity (PRKACA (human); compound 0.1 µM) of 109%, a residual activity (PRKACA (human); compound 1.0 µM) of 119% and a residual activity (PRKACA (human); compound 10.0 µM) of 108%. For the same molecule, the residual activity (MAPKAPK3 (human); compound 0.1 µM) was 114%, the residual activity (MAPKAPK3 (human); compound 1.0 µM) was 62% and the residual activity (MAPKAPK3 (human); compound 10.0 µM) was 30%. It also gave a residual activity (ROCK2 (rat); compound 0.1 µM) of 112%, a residual activity (ROCK2 (rat); compound 1.0 µM) of 96% and a residual activity (ROCK2 (rat); compound 10.0 µM) of 95%. It also gave a residual activity (MAP2K2 (human); compound 0.1 µM) of 113%, a residual activity (MAP2K2 (human); compound 1.0 µM) of 108% and a residual activity (MAP2K2 (human); compound 10.0 µM) of 79%. The residual activity (MKNK2 (human); compound 0.1 µM) was 111%, the residual activity (MKNK2 (human); compound 10.0 µM) was 26% and the residual activity (INSRR (human); compound 0.1 µM) was 99%. It also gave a residual activity (INSRR (human); compound 1.0 µM) of 79%, a residual activity (INSRR (human); compound 10.0 µM) of 53% and a residual activity (CHEK2 (human); compound 0.1 µM) of 112%. It also gave a residual activity (CHEK2 (human); compound 1.0 µM) of 51%, a residual activity (CHEK2 (human); compound 10.0 µM) of 9% and a residual activity (NTRK1 (human); compound 1.0 µM) of 100%. For the same molecule, the residual activity (NTRK1 (human); compound 10.0 µM) was 83%, the residual activity (SRC (human); compound 0.1 µM) was 110% and the residual activity (SRC (human); compound 1.0 µM) was 116%. For the same molecule, the residual activity (SRC (human); compound 10.0 µM) was 100%, the residual activity (GSK3B (human); compound 0.1 µM) was 126% and the residual activity (GSK3B (human); compound 1.0 µM) was 99%. The residual activity (GSK3B (human); compound 10.0 µM) was 88%, the residual activity (EEF2K (human); compound 0.1 µM) was 106% and the residual activity (EEF2K (human); compound 1.0 µM) was 97%. The residual activity (EEF2K (human); compound 10.0 µM) was 85%, the residual activity (MAPK13 (human); compound 0.1 µM) was 108% and the residual activity (MAPK13 (human); compound 1.0 µM) was 103%. For the same molecule, the residual activity (MAPK13 (human); compound 10.0 µM) was 94%, the residual activity (MYLK (human); compound 0.1 µM) was 118% and the residual activity (MYLK (human); compound 1.0 µM) was 112%. The residual activity (MYLK (human); compound 10.0 µM) was 110%, the residual activity (MARK4 (human); compound 0.1 µM) was 107% and the residual activity (MARK4 (human); compound 1.0 µM) was 87%. The residual activity (MARK4 (human); compound 10.0 µM) was 49%, the residual activity (MKNK1 (human); compound 0.1 µM) was 105% and the residual activity (MKNK1 (human); compound 1.0 µM) was 103%. It also gave a residual activity (MKNK1 (human); compound 10.0 µM) of 83%, a residual activity (PRKCZ (human); compound 0.1 µM) of 115% and a residual activity (PRKCZ (human); compound 1.0 µM) of 112%. It also gave a residual activity (PRKCZ (human); compound 10.0 µM) of 106%, a residual activity (DAPK1 (human); compound 0.1 µM) of 103% and a residual activity (DAPK1 (human); compound 1.0 µM) of 62%. For the same molecule, the residual activity (DAPK1 (human); compound 10.0 µM) was 15%, the residual activity (LCK (mouse); compound 1.0 µM) was 95% and the residual activity (RPS6KA1 KD1 KD2 (human); compound 0.1 µM) was 106%. It also gave a residual activity (RPS6KA1 KD1 KD2 (human); compound 1.0 µM) of 100%, a residual activity (RPS6KA1 KD1 KD2 (human); compound 10.0 µM) of 76% and a residual activity (CSK (human); compound 10.0 µM) of 106%. It also gave a residual activity (EPHB3 (human); compound 0.1 µM) of 98%, a residual activity (EPHB3 (human); compound 1.0 µM) of 88% and a residual activity (EPHB3 (human); compound 10.0 µM) of 85%. The residual activity (PHKG1 (human); compound 0.1 µM) was 110%, the residual activity (PHKG1 (human); compound 1.0 µM) was 91% and the residual activity (PHKG1 (human); compound 10.0 µM) was 86%. For the same molecule, the residual activity (MAP3K9 (human); compound 0.1 µM) was 99%, the residual activity (MAP3K9 (human); compound 1.0 µM) was 95% and the residual activity (CSNK2A1 (human); compound 0.1 µM) was 100%. For the same molecule, the residual activity (CSNK2A1 (human); compound 1.0 µM) was 97%, the residual activity (CSNK2A1 (human); compound 10.0 µM) was 93% and the residual activity (IKBKB (human); compound 0.1 µM) was 115%. The residual activity (IKBKB (human); compound 1.0 µM) was 109%, the residual activity (IKBKB (human); compound 10.0 µM) was 101% and the residual activity (ERBB4 (human); compound 0.1 µM) was 92%. The residual activity (ERBB4 (human); compound 1.0 µM) was 105%, the residual activity (ERBB4 (human); compound 10.0 µM) was 99% and the residual activity (PRKAA1 or PRKAA2 (rat); compound 0.1 µM) was 93%. For the same molecule, the residual activity (PRKAA1 or PRKAA2 (rat); compound 1.0 µM) was 38%, the residual activity (PRKAA1 or PRKAA2 (rat); compound 10.0 µM) was 9% and the residual activity (CDK2 CCNA2 (human); compound 0.1 µM) was 111%. It also gave a residual activity (CDK2 CCNA2 (human); compound 1.0 µM) of 93%, a residual activity (CDK2 CCNA2 (human); compound 10.0 µM) of 57% and a residual activity (FGFR1 (human); compound 0.1 µM) of 95%. For the same molecule, the residual activity (FGFR1 (human); compound 1.0 µM) was 91% and the residual activity (FGFR1 (human); compound 10.0 µM) was 68%.

A residual activity ([1]; compound 10.0 µM) of 81%, a residual activity (TTK (human); compound 10.0 µM) of 87% and a residual activity (MINK1 (human); compound 10.0 µM) of 72% were found for `Cc1ccc2c(c1)C(=O)[C@@]1(O)CCN(c3ccccc3)C1=N2` in this work. It also gave a residual activity (AURKB (human); compound 10.0 µM) of 88%, a residual activity (MAPK1 (human); compound 10.0 µM) of 91% and a residual activity (MAPK1 (human); compound 100.0 µM) of 82%. It also gave a residual activity (MELK (human); compound 10.0 µM) of 96%, a residual activity (PRKACA (human); compound 10.0 µM) of 101% and a residual activity (PRKACA (human); compound 100.0 µM) of 70%. It also gave a residual activity (MAPKAPK3 (human); compound 10.0 µM) of 86%, a residual activity (ROCK2 (rat); compound 10.0 µM) of 77% and a residual activity (ROCK2 (rat); compound 100.0 µM) of 76%. It also gave a residual activity (MAP2K2 (human); compound 10.0 µM) of 81%, a residual activity (MKNK2 (human); compound 10.0 µM) of 104% and a residual activity (INSRR (human); compound 10.0 µM) of 88%. The residual activity (CHEK2 (human); compound 10.0 µM) was 100%, the residual activity (NTRK1 (human); compound 10.0 µM) was 103% and the residual activity (SRC (human); compound 10.0 µM) was 80%. The residual activity (GSK3B (human); compound 10.0 µM) was 88%, the residual activity (GSK3B (human); compound 100.0 µM) was 66% and the residual activity (EEF2K (human); compound 10.0 µM) was 83%. It also gave a residual activity (MAPK13 (human); compound 10.0 µM) of 81%, a residual activity (MAPK13 (human); compound 100.0 µM) of 116% and a residual activity (MYLK (human); compound 10.0 µM) of 74%. The residual activity (MARK4 (human); compound 10.0 µM) was 94%, the residual activity (MKNK1 (human); compound 10.0 µM) was 97% and the residual activity (PRKCZ (human); compound 10.0 µM) was 108%. For the same molecule, the residual activity (DAPK1 (human); compound 10.0 µM) was 93%, the residual activity (LCK (mouse); compound 10.0 µM) was 106% and the residual activity (LCK (mouse); compound 100.0 µM) was 72%. It also gave a residual activity (RPS6KA1 KD1 KD2 (human); compound 10.0 µM) of 76%, a residual activity (RPS6KA1 KD1 KD2 (human); compound 100.0 µM) of 77% and a residual activity (CSK (human); compound 10.0 µM) of 69%. For the same molecule, the residual activity (CSK (human); compound 100.0 µM) was 67%, the residual activity (EPHB3 (human); compound 10.0 µM) was 107% and the residual activity (PHKG1 (human); compound 10.0 µM) was 114%. The residual activity (PHKG1 (human); compound 100.0 µM) was 86%, the residual activity (MAP3K9 (human); compound 10.0 µM) was 101% and the residual activity (CSNK2A1 (human); compound 10.0 µM) was 110%. The residual activity (CSNK2A1 (human); compound 100.0 µM) was 101%, the residual activity (IKBKB (human); compound 10.0 µM) was 96% and the residual activity (ERBB4 (human); compound 10.0 µM) was 87%. For the same molecule, the residual activity (PRKAA1 or PRKAA2 (rat); compound 10.0 µM) was 92%, the residual activity (PRKAA1 or PRKAA2 (rat); compound 100.0 µM) was 60% and the residual activity (CDK2 CCNA2 (human); compound 10.0 µM) was 116%. The residual activity (CDK2 CCNA2 (human); compound 100.0 µM) was 92% and the residual activity (FGFR1 (human); compound 10.0 µM) was 118%.
